Experimental findings from patent US10435435B2, “Quinstatin compounds” (THE ARIZONA BOARD OF REGENTS ON BEHALF OF ARIZONA STATE …, priority 2015, dated 2019) are described below.

Like-named read-outs stand apart in the source and are kept apart here. Square brackets hold non-standard residues; d marks the D form. Peptide text beside a SMILES is read from it. * marks the point of attachment. Dolaproine = CO[C@@H]([C@@H]1CCCN1)[C@@H](C)C(=O)O; Dil = CC[C@H](C)[C@H](NC)[C@@H](CC(=O)O)OC; X1 = C[C@@H](N*)[C@@H](O)c1ccccc1; NMeV = CN[C@H](C(=O)O)C(C)C

Experiment [1] concerns BXPC-3 (pancreas) cancer cell line. The experiment can be described thus: NCI sulforhodamine B growth inhibition, BXPC-3. The experiment is classed as cell-based, human. Conditions: BXPC-3, 48 h. The method, then:
(§1) Next, serial dilutions of the compounds were added.

Experiment [2] deals with MCF-7 (breast) cancer cell line. The experiment in a line: NCI sulforhodamine B growth inhibition, MCF-7. The settings on record: MCF-7, 48 h. The experiment is classed as cell-based, human. The method, then: as §1
For experiment [3], the system named is SF-268 (CNS) cancer cell line. The experiment can be described thus: NCI sulforhodamine B growth inhibition, SF-268. Conditions: SF-268, 48 h. The experiment is classed as cell-based, human. The method, then: as §1
Experiment [4] concerns NCI-H460 (lung) cancer cell line. The experiment in a line: NCI sulforhodamine B growth inhibition, NCI-H460. The experiment is classed as cell-based, human. Conditions: NCI-H460, 48 h. On the procedure:
as §1

The subject of experiment [5] is KM20L2 (colon) cancer cell line. The experiment in a line: NCI sulforhodamine B growth inhibition, KM20L2. The experiment is classed as cell-based, human. The settings on record: KM20L2, 48 h. The method, then: as §1
Experiment [6] deals with DU-145 (prostate) cancer cell line. The experiment can be described thus: NCI sulforhodamine B growth inhibition, DU-145. The experiment is classed as cell-based, human. The settings on record: DU-145, 48 h. On the procedure:
as §1

A further experiment has as its system Human Cancer Cell Lines. The method, then:
Inhibition of human cancer cell growth was assessed using the National Cancer Institute's standard sulforhodamine B assay as previously described.^10 In summary, cells in a 5% fetal bovine serum/RPMI1640 medium were inoculated in 96-well plates and incubated for 24 hrs. Next, serial dilutions of the compounds were added. After 48 h, the plates were fixed with trichloroacetic acid, stained with sulforhodamine B, and read with an automated microplate reader.

The mark [7] stands for this setting: bracketed value, read-out: GI50.

Regarding `CC[C@H](C)[C@@H]([C@@H](CC(=O)N1CCC[C@H]1[C@H](OC)[C@@H](C)C(=O)N[C@H](C)[C@@H](O)c1ccccc1)OC)N(C)C(=O)[C@@H](NC(=O)[C@@H](NC)C(C)C)C(C)C` [Desmethylauristatin E, desmethyl auristatin E, reference compound] (H-[NMeV]V[Dil][Dolaproine]-X1), the GI50 in experiment [1] was over 1 ng/mL; in experiment [1] (setting [7]), over 1.39 nM; in experiment [2] it was 0.29 ng/mL; in experiment [2] (setting [7]), 0.404 nM; in experiment [3] it was 0.31 ng/mL; in experiment [3] (setting [7]), 0.432 nM. Further, the GI50 in experiment [4] stood at 0.49 ng/mL; in experiment [4] (setting [7]), 0.683 nM; in experiment [5], 0.43 ng/mL; in experiment [5] (setting [7]) it was 0.599 nM; in experiment [6], 0.3 ng/mL; in experiment [6] (setting [7]) it was 0.418 nM.

Regarding `CC[C@H](C)[C@@H]([C@@H](CC(=O)N1CCC[C@H]1[C@H](OC)[C@@H](C)C(=O)NCCc1ccc2cccnc2c1)OC)N(C)C(=O)[C@@H](NC(=O)[C@H](C(C)C)N(C)C)C(C)C` [Quinstatin 7, 7-(1′-Dov-Val-Dil-Dap-2′-ethyl)-quinoline], the GI50 in experiment [1] is 3.1 ng/mL; in experiment [1] (setting [7]), 4.12 nM; in experiment [2], 0.03 ng/mL; in experiment [2] (setting [7]), 0.039 nM; in experiment [3], 0.024 ng/mL; in experiment [3] (setting [7]), 0.032 nM. The concentration for 50% growth inhibition (GI50) was 11 ng/mL in experiment [4]; 14.6 nM in experiment [4] (setting [7]); 0.041 ng/mL in experiment [5]; 0.054 nM in experiment [5] (setting [7]); 0.03 ng/mL in experiment [6]; 0.04 nM in experiment [6] (setting [7]).

For the molecule `CC[C@H](C)[C@@H]([C@@H](CC(=O)N1CCC[C@H]1[C@H](OC)[C@@H](C)C(=O)N[C@H](C)[C@@H](O)c1ccccc1)OC)N(C)C(=O)[C@@H](NC(=O)[C@H](C(C)C)N(C)C)C(C)C` [Auristatin E, auristatin E, reference compound], the GI50 in experiment [1] was over 1 ng/mL; in experiment [1] (setting [7]) it was over 1.37 nM; in experiment [2], 0.17 ng/mL; in experiment [2] (setting [7]), 0.232 nM; in experiment [3], 0.36 ng/mL; in experiment [3] (setting [7]) it was 0.492 nM. Further, the GI50 stood at 0.39 ng/mL in experiment [4]; 0.533 nM in experiment [4] (setting [7]); 0.36 ng/mL in experiment [5]; 0.492 nM in experiment [5] (setting [7]); 0.31 ng/mL in experiment [6]; 0.424 nM in experiment [6] (setting [7]).

On to `CC[C@H](C)[C@@H]([C@@H](CC(=O)N1CCC[C@H]1[C@H](OC)[C@@H](C)C(=O)N[C@@H](Cc1ccccc1)c1nccs1)OC)N(C)C(=O)[C@@H](NC(=O)[C@H](C(C)C)N(C)C)C(C)C` [Dolastatin 10, dolastatin 10, reference compound], for which the concentration for 50% growth inhibition (GI50) in experiment [1] worked out at 0.04 ng/mL; in experiment [1] (setting [7]), 0.051 nM; in experiment [2] it was 0.0042 ng/mL; in experiment [2] (setting [7]), 0.005 nM; in experiment [3] it was 0.0043 ng/mL; in experiment [3] (setting [7]) it was 0.006 nM. In addition, the GI50 in experiment [4] came out at 0.18 ng/mL; in experiment [4] (setting [7]), 0.229 nM; in experiment [5] it was 0.008 ng/mL; in experiment [5] (setting [7]), 0.01 nM; in experiment [6] it was 0.0052 ng/mL; in experiment [6] (setting [7]), 0.007 nM.

Regarding `CC[C@H](C)[C@@H]([C@@H](CC(=O)N1CCC[C@H]1[C@H](OC)[C@@H](C)C(=O)NCCc1ccc2ccccc2n1)OC)N(C)C(=O)[C@@H](NC(=O)[C@H](C(C)C)N(C)C)C(C)C` [Quinstatin 2, 2-(1′-Dov-Val-Dil-Dap-2′-ethyl)-quinoline], the GI50 came to 9.3 ng/mL in experiment [1]; 12.3 nM in experiment [1] (setting [7]); 0.31 ng/mL in experiment [2]; 0.412 nM in experiment [2] (setting [7]); 0.23 ng/mL in experiment [3]; 0.306 nM in experiment [3] (setting [7]). Also, the concentration for 50% growth inhibition (GI50) in experiment [4] worked out at 5.1 ng/mL; in experiment [4] (setting [7]) it was 6.78 nM; in experiment [5], 0.33 ng/mL; in experiment [5] (setting [7]), 0.438 nM; in experiment [6], 0.31 ng/mL; in experiment [6] (setting [7]), 0.412 nM. Moreover, in the experiment on Human Cancer Cell Lines (comparison with auristatin AQ), the “increase in cancer cell growth inhibition as compared to auristatin AQ” value is “ten to one hundred times”.

Regarding `CC[C@H](C)[C@@H]([C@@H](CC(=O)N1CCC[C@H]1[C@H](OC)[C@@H](C)C(=O)NCCc1cccc2cccnc12)OC)N(C)C(=O)[C@@H](NC(=O)[C@H](C(C)C)N(C)C)C(C)C` [Quinstatin 8, 8-(1′-Dov-Val-Dil-Dap-2′-ethyl)-quinoline], the GI50 in experiment [1] was 0.5 ng/mL; in experiment [1] (setting [7]), 0.425 nM; in experiment [2] it was 0.04 ng/mL; in experiment [2] (setting [7]), 0.053 nM; in experiment [3], 0.023 ng/mL; in experiment [3] (setting [7]), 0.03 nM. Besides, the GI50 in experiment [4] turned out to be 0.9 ng/mL; in experiment [4] (setting [7]), 1.19 nM; in experiment [5] it was 0.04 ng/mL; in experiment [5] (setting [7]), 0.053 nM; in experiment [6] it was 0.04 ng/mL; in experiment [6] (setting [7]) it was 0.053 nM. The “inhibition level compared with dolastatin 10” value in the experiment with Human Cancer Cell Lines (in one of the experiments) was “at the dolastatin 10 level, but not consistently”.

Turning to `CC[C@H](C)[C@@H]([C@@H](CC(=O)N1CCC[C@H]1[C@H](OC)[C@@H](C)C(=O)NCCc1cnc2ccccc2c1)OC)N(C)C(=O)[C@@H](NC(=O)[C@H](C(C)C)N(C)C)C(C)C` [Quinstatin 3, 3-(1′-Dov-Val-Dil-Dap-2′-ethyl)-quinoline], the GI50 in experiment [1] worked out at 21 ng/mL; in experiment [1] (setting [7]) it was 27.9 nM; in experiment [2], 0.23 ng/mL; in experiment [2] (setting [7]) it was 0.31 nM; in experiment [3], 0.29 ng/mL; in experiment [3] (setting [7]), 0.38 nM. The GI50 in experiment [4] is 31 ng/mL; in experiment [4] (setting [7]), 41.2 nM; in experiment [5] it was 0.4 ng/mL; in experiment [5] (setting [7]), 0.53 nM; in experiment [6] it was 0.2 ng/mL; in experiment [6] (setting [7]), 0.26 nM.

As for `CC[C@H](C)[C@@H]([C@@H](CC(=O)N1CCC[C@H]1[C@H](OC)[C@@H](C)C(=O)NCCc1ccc2ncccc2c1)OC)N(C)C(=O)[C@@H](NC(=O)[C@H](C(C)C)N(C)C)C(C)C` [Quinstatin 6, Dov-Val-Dil-Dap-2-(quinolin-6-yl)ethylamine], the GI50 came to 2 ng/mL in experiment [1]; 2.66 nM in experiment [1] (setting [7]); 0.4 ng/mL in experiment [2]; 0.532 nM in experiment [2] (setting [7]); 0.3 ng/mL in experiment [3]; 0.399 nM in experiment [3] (setting [7]). In addition, the GI50 in experiment [4] worked out at 4.3 ng/mL; in experiment [4] (setting [7]), 5.71 nM; in experiment [5], 0.39 ng/mL; in experiment [5] (setting [7]), 0.518 nM; in experiment [6], 0.3 ng/mL; in experiment [6] (setting [7]), 0.399 nM.
